Data published in patent publication US20250332080A1, “Skin Cell Energy Booster Composition” (CarboCode S.A., priority 2022, published 2025).

Tested on: Reconstructed Human Epidermis (RHE)
Experiment: Proteomic (LC-MS/MS) analysis of Reconstructed Human Epidermis treated topically with ceramide in base emulsion
Type: cell-based
Conditions: topical 24 h, 0.01%, 0.03%, 0.15% ceramide in vehicle vs vehicle
Excerpt: FIGS. 1 to 3 show heatmaps using a log 2 scale with up- or downregulation of respective proteins upon treatment with 0.01% (01), 0.03% (03) and 0.15% (15) of respective ceramide in vehicle as compared to vehicle without ceramide (VEH) (FIG. 1: GlcCerNS, FIG. 2: LacCerNS, FIG. 3: CerNG); detailed experimental setup explained in Example 1.
Material and methods: Reconstructed Human Epidermis (RHE) cell culture was used, as this system mimics the in vivo 3D structure of epidermal tissue as well as the conditions and processes that occur in normal epidermis. RHE were cultured using the medium provided by the manufacturer until analysis. RHE were maintained in survival for 24 hours, before RHE were topically treated with lipid in a base emulsion for 24 h. 3 RHE were treated with base emulsion alone and 3 more remained untreated as a control batch (Ctrl). RHE were incubated under classical cell culture conditions (37° C., 5% CO2).
Sample preparation and LC-MS/MS analysis: Protein was extracted using the Pierce Total Protein Extraction Kit (Thermo Fisher) according to manufacturer's recommendations. The protein was mixed with Laemmli buffer and heated to 37° C. for 30 min. Protein concentration was determined by the BCA method and standardized for all samples. The samples were separated by SDS-PAGE and digested with trypsin overnight. The peptides generated were acidified and separated. The mass spectra were queried using Proteome Discoverer (version 2.5). The resulting MS/MS data were queried against the Homo sapiens proteome UP000005640 (20371 reviewed entries). Results were filtered based on unique peptides>2, and global peptide scores. Analyses were performed using Proteome Discoverer 2.5 to check for overall sample quality.
Bioinformatics and statistical analysis: Proteomic analysis returned a mean total of 34961 high-quality peptides corresponding to a mean 2422 identifiable and quantifiable RHE proteins among conditions. Proteins with a p-value<0.05 in at least one of the concentrations tested for a lipid were considered significant and used for pairwise comparisons. Relevant proteins were classified by their biological processes and associated pathways using the publicly available gene ontology (GO) database provided by the Gene Ontology Consortium and Reactome. Interactome analysis was performed using Cytoscape combined with STRING.

lactosyl ceramide
upregulation: ATP synthase subunit delta (mitochondrial) protein level | ATP synthase subunit g (mitochondrial) protein level | ATP-dependent zinc metalloprotease YME1L1 protein level | NAD-dependent malic enzyme (mitochondrial) protein level | cytochrome b-c1 complex subunit 9 protein level | cytochrome c oxidase subunit 2 protein level | cytochrome c oxidase subunit 6C protein level | cytochrome c oxidase subunit NDUFA4 protein level | phosphomevalonate kinase protein level

Glucosyl ceramide [GlcCer]
upregulation: ATP synthase subunit delta (mitochondrial) protein level | ATP synthase subunit g (mitochondrial) protein level | ATP-dependent zinc metalloprotease YME1L1 protein level | NAD-dependent malic enzyme (mitochondrial) protein level | NADH dehydrogenase [ubiquinone]1 alpha subcomplex subunit 8 protein level | NADH dehydrogenase [ubiquinone]iron-sulfur protein 2 (mitochondrial) protein level | cytochrome c oxidase subunit 6C protein level | phosphomevalonate kinase protein level

ceramide NG
upregulation: ATP synthase subunit delta (mitochondrial) protein level | ATP synthase subunit g (mitochondrial) protein level | cytochrome c oxidase subunit 6C protein level | phosphomevalonate kinase protein level
